Measurements published in patent US9261498B2, “Biomarker for sensitivity to mTOR inhibitor therapy in kidney cancer” (The Regents of the University of California, priority 2005, dated 2016).
“Also recorded” adds a separate entry of the source.

Tests used:
HIF-1α mRNA = experiment: Real-time quantitative RT-PCR of HIF-1α transcript; assay type: cell-based, human; details: 10 nM CCI-779
Procedure: Total RNA was extracted from SN12C-CSCG, ACHN-CSCG, SN12C-CSCG-VHLshRNA and ACHN-CSCG-VHL shRNA cell lines treated with vehicle or 10 nM of CCI-779 using the RNeasy kit (Qiagen). Two μg of total RNA was used as a template for the production of c DNA through reverse transcription. The reactions were assembled as in a 25 μl final volume as follows: 1 μM primers (random hexamers; Invitrogen), 10 mM DTT, 1X Superscript II buffer, […] of dATP, dCTP, dGTP and dTTP, 10U RNasin, 200 units of Superscript II reverse transcriptase. Each RNA template, primer and nuclease free water were combined and incubated for 10 minutes, then placed in an ice bath. The remaining reaction components were added and each reaction was incubated at 25° C. for 10 minutes, then 42° C. for 60 minutes and finally 70° C. for 15 minutes. Negative control reactions (which contained no RT enzyme) were also assembled. Real-time PCR was performed on an ABI Prism 7700 sequence detector (Applied Biosystems). Primers and specific probes for HIF-1α and 18S were obtained from Assays-on Demand Gene Expression products (Applied Biosystems). […] Threshold cycles (Ct's) for the RT samples were recorded. […] Tracer uptake by the tumors was expressed as the ratio between the maximum intratumoral and mean hepatic counts/pixel. All quantitative values are reported as mean±standard error of the mean (SEM).

[1] = test system: VHL knockdown xenograft tumors; experiment: Microvessel density by CD-31 immunolabeling in xenograft tumors; assay type: in vivo, SCID mice
Procedure: FIGS. 2A-2C. Effects of VHL knockdown on angiogenesis. (a) Microvessel density was quantified by CD-31 immunolabeling (arrows) in the xenograft tumors, and difference between CCI-779 treated (+) and vehicle (−) treated mice quantified (n=6 in each group). P<0.0033 for microvessel density counts in VHL shRNA compared to vector only (see blue bars). (b) Similar number of cells were plated and maintained in 10% serum rich media, in the presence (+) or absence (−) of 10 nM CCI-779. Thirty-six hours later, conditioned media was analyzed by anti-VEGF ELISA and cell extracts prepared for protein quantification. VEGF values were normalized to total cellular protein. Error bars equal one standard deviation (n=3). (c) Immunohistochemistry for VEGF protein was performed on paraffin embedded tumor xenografts from vehicle and CCI-779 treated mice.
Xenograft tumor samples were fixed in 10% buffered formalin and embedded in paraffin. […] Microvessel density was quantified by as described previously (Weidner, N. et al. J Natl Cancer Inst 84, 1875-87 (1992)). Briefly, microvessel density was determined by light microscopy in areas of the xenograft tumor containing highest numbers of capillaries and small venules (microvessels) per area (i.e. neovascular “hotspots”) by scanning the tumor sections at low power (40× and 100×). […]

[2] = test system: VHL knockdown xenograft tumors; experiment: FDG microPET imaging of xenograft tumors; assay type: in vivo, SCID mice; details: within 24 hours, CCI-779 0.1 mg/kg i.p. every 12 hours; uptake normalized to liver
Procedure: FIGS. 5A-5B. […] (a) Representative images of two SCID-mice bearing isogenic ACHN-xenograft tumors on the right flank before and after two doses of CCI-799 (0.1 mg/kg). Arrows indicate the location of subcutaneous xenograft tumors (innate increased signal intensity due to abdominal brown fat and glial tissue are observed in the thorax and skull of the mice). (b) Quantification of FDG uptake (+/−SEM) in SCID-mice bearing either ACHN-vector or ACHN-CSCG VHL shRNA subcutaneous xenografts. FDG-tumor uptake was normalized to hepatic FDG-uptake for each mouse. n=3 per group and experiments were repeated twice with identical results.
Total RNA was extracted from SN12C-CSCG, ACHN-CSCG, SN12C-CSCG-VHLshRNA and ACHN-CSCG-VHL shRNA cell lines treated with vehicle or 10 nM of CCI-779 using the RNeasy kit (Qiagen). Two μg of total RNA was used as a template for the production of c DNA through reverse transcription. […] Threshold cycles (Ct's) for the RT samples were recorded. […] Tracer uptake by the tumors was expressed as the ratio between the maximum intratumoral and mean hepatic counts/pixel. All quantitative values are reported as mean±standard error of the mean (SEM).

CO[C@H]1C[C@@H]2CC[C@@H](C)[C@@](O)(O2)C(=O)C(=O)N2CCCC[C@H]2C(=O)O[C@H]([C@H](C)C[C@@H]2CC[C@@H](OC(=O)C(C)(CO)CO)[C@H](OC)C2)CC(=O)[C@H](C)/C=C(\C)[C@@H](O)[C@@H](OC)C(=O)[C@H](C)C[C@H](C)/C=C/C=C/C=C/1C [CCI-779]
HIF-1α transcript (mRNA) levels (HIF-1α mRNA): no effect; also recorded: without exerting any effect on transcription; also recorded: did not see any changes
angiogenesis as measured by microvessel density ([1]; CCI-779 treated vs vehicle): objective decrease in angiogenesis
decrease in microvessel density ([1]; CD-31 staining, CCI-779 0.1 mg/kg vs vehicle): greater than 50%
FDG uptake of VHL knockdown tumors [2]: reduced to baseline
